A word on the IC50: it is the midpoint of a concentration-inhibition curve.

These results are taken from PMC3806475, “Marine Derived Hamacanthins as Lead for the Development of Novel PDGFRβ Protein Kinase Inhibitors” (Marine Drugs, 2013).

Data set [1] has as its target PDGFRβ (Homo sapiens, UniProt P09619). Briefly: 33PanQinase protein kinase activity assay. The data set is classed as biochemical. To be noted: recombinant kinase, 1 µM ATP.
Method: (§2) Protein kinase Assay. A proprietary protein kinase assay (^33PanQinase® Activity Assay) was used for measuring the kinase activity of the 24 protein kinases. All protein kinase assays were performed in 96-well FlashPlates™ (Perkin Elmer/NEN, Boston, MA, USA) in a 50 µL reaction volumes. Assays for all enzymes were performed in a solution containing 60 mM HEPES-NaOH, pH 7.5, 3 mM MgCl2, 3 mM MnCl2, 3 µM Na-orthovanadate, 1.2 mM DTT, 50 µg/mL PEG20000, 1 µM [γ-33P]-ATP (approx. 5 × 10^5 cpm per well), recombinant protein kinase (50–400 ng). Depending upon the kinase being assayed, appropriate substrates were used and were as follows (substrates shown in parentheses): AKT1 (GSK3/14-27), ARK5 (autophosphorylation), Aurora-A, Aurora-B (Tetra(LRRWSLG)), B-Raf-VE (MEK1 KM), CDK2/CycA (histone H1), CDK4/CycD1 (Rb-CTF), CK2-A1 (Casein), EGF-R, EPHB4, ERBB2, FAK, IGF1-R, SRC, VEGF-R2, VEGF-R3 (poly(Glu,Tyr) 4:1), FLT3, INS-R, MET, PDGFRβ (poly(Ala,Glu,Lys,Tyr) 6:2:5:1), PLK1 (Casein), SAK (autophosphorylation), TIE2 (poly(Glu,Tyr) 4:1), COT (autophosphorylation). The IC50 values were measured by testing 10 concentrations of compounds by single sampling. The final DMSO concentration in the assay was 1% (v/v). The data were fitted using the 4-parameter logistic fit option of GraphPad Prism 5.
The test system of data set [2] is HL-60 cells. Put plainly: Cell viability assay (CellTiter-Glo). The data set is classed as cell-based. To be noted: Homo sapiens, 48 h incubation. Background: ATP-based viability assays read luminescence as a measure of living cells.
Method: The cells were grown in RPMI 1640 Glutamax with 10% FCS, 100 µg/mL streptomycin and 100 U/mL Penicillin G and incubated in a 5% CO2 humidified atmosphere at 37 °C. For proliferation experiments, cells were seeded in 20 µL pro well into 384-well Greiner 384 CellStar® plates (Greiner Bio-One I. AG, Kremsmünster, AT). In addition to the test plates, one plate was prepared for the reference measurement at day zero. All plates were incubated for 24 h at 37 °C in a humidified atmosphere with 5% CO2. […] The final DMSO concentration in the assay was 0.5% v/v. The viability of the cells in the day zero control plates were determined on the same day without adding any compounds. The CellTiter-Glo® Viability Assay was used to determine the viability of cells using the standard protocol for this assay (Promega Corp., Madison, WI, USA). The luminescence signal was measured at the EnSpire® Multimode Plate Reader (PerkinElmer, Waltham, MA, USA). Test plates were incubated for further 48 h and the cell viability was defined as just described. Measured raw data were converted into percent of cell growth by using the high control (0.5% DMSO v/v without compound) and the day zero control. For dose-response studies, 11 different concentrations of compounds were tested in quadruplicates. The IC50 values were calculated using the 4-parameter logistic fit option of GraphPad Prism 5.
In data set [3] the test system is TK 10, 786-0, M 14, and MCF-7 cell lines. Put plainly: Cell viability assay (CellTiter-Glo), other cell lines. The data set is classed as cell-based. The note with it: TK 10, 786-0, M 14, MCF-7; 48 h; compared with HL-60. How it is done: In order to determine the cytotoxic profiles of compounds 5 and 8, they were evaluated in cell viability assays (Figure 7) including HL-60, a human myeloblastic leukemia cell line, as it has been shown that the proliferation and differentiation of these cells depend upon PDGFR-signalling. Cells were treated with compounds 5 and 8 and after 48 h incubation, their viability was determined. […] This is in line with the notion that HL-60 cells depend on PDGFR-signaling.
The cells were grown in RPMI 1640 Glutamax with 10% FCS, 100 µg/mL streptomycin and 100 U/mL Penicillin G and incubated in a 5% CO2 humidified atmosphere at 37 °C. For proliferation experiments, cells were seeded in 20 µL pro well into 384-well Greiner 384 CellStar® plates (Greiner Bio-One I. AG, Kremsmünster, AT). In addition to the test plates, one plate was prepared for the reference measurement at day zero. All plates were incubated for 24 h at 37 °C in a humidified atmosphere with 5% CO2. […] The viability of the cells in the day zero control plates were determined on the same day without adding any compounds. […] The luminescence signal was measured at the EnSpire® Multimode Plate Reader (PerkinElmer, Waltham, MA, USA). […] Measured raw data were converted into percent of cell growth by using the high control (0.5% DMSO v/v without compound) and the day zero control. […]

In data set [4] the test system is bacterial methicillin-resistant Staphylococcus (MRSA-PK). Set-up: method as in PMID 22030393. The note with it: cited from earlier work.
Data set [5] addresses SRC (Homo sapiens, UniProt P12931). Briefly: 33PanQinase protein kinase activity assay. In kind it is biochemical. To be noted: recombinant kinase, 1 µM ATP.
Method: as §2
Data set [6] deals with EPHB4 (Homo sapiens, UniProt P54760). Put plainly: 33PanQinase protein kinase activity assay. In kind it is biochemical. To be noted: recombinant kinase, 1 µM ATP.
Method: as §2
Data set [7] addresses ARK5 (Homo sapiens, UniProt O60285). Briefly: 33PanQinase protein kinase activity assay. The data set is classed as biochemical. To be noted: recombinant kinase, 1 µM ATP.
Method: (§3) The inhibitory profile of compounds was determined using the following 24 protein kinases (GenBankAcc.No. available on http://www.proqinase.com/pages/science [29]): AKT1, ARK5, Aurora-A, Aurora-B, B-Raf-VE, CDK2/CycA, CDK4/CycD1, CK2-A1, EGF-R, EPHB4, ERBB2, FAK, IGF1-R, SRC, VEGF-R2, VEGF-R3, FLT3, INS-R, MET, PDGFRβ, PLK1, SAK, TIE2 and COT. All protein kinases were expressed using human cDNAs in Sf9 insect cells as recombinat GST-fusion proteins or His-tagged proteins by means of the baculovirus expression system. Kinases were purified by affinity chromatography using either GSH-agarose (Sigma) or Ni-NTA-agarose (Qiagen). The purity and identity of each kinase was determined by SDS-PAGE/silver staining and western blot analysis using specific antibodies.
(§4) Protein kinase Assay. A proprietary protein kinase assay (^33PanQinase® Activity Assay) was used for measuring the kinase activity of the 24 protein kinases. All protein kinase assays were performed in 96-well FlashPlates™ (Perkin Elmer/NEN, Boston, MA, USA) in a 50 µL reaction volumes. Assays for all enzymes were performed in a solution containing 60 mM HEPES-NaOH, pH 7.5, 3 mM MgCl2, 3 mM MnCl2, 3 µM Na-orthovanadate, 1.2 mM DTT, 50 µg/mL PEG20000, 1 µM [γ-33P]-ATP (approx. 5 × 10^5 cpm per well), recombinant protein kinase (50–400 ng). […] The IC50 values were measured by testing 10 concentrations of compounds by single sampling. […]
Data set [8] deals with TIE2 (Homo sapiens, UniProt Q02763). Put plainly: 33PanQinase protein kinase activity assay. In kind it is biochemical. To be noted: recombinant kinase, 1 µM ATP.
Method: as §3, §4
Data set [9] has as its target FAK (Homo sapiens, UniProt Q05397). Briefly: 33PanQinase protein kinase activity assay. The data set is classed as biochemical. To be noted: recombinant kinase, 1 µM ATP.
Method: Recombinant protein kinases. The inhibitory profile of compounds was determined using the following 24 protein kinases (GenBankAcc.No. available on http://www.proqinase.com/pages/science [29]): AKT1, ARK5, Aurora-A, Aurora-B, B-Raf-VE, CDK2/CycA, CDK4/CycD1, CK2-A1, EGF-R, EPHB4, ERBB2, FAK, IGF1-R, SRC, VEGF-R2, VEGF-R3, FLT3, INS-R, MET, PDGFRβ, PLK1, SAK, TIE2 and COT. All protein kinases were expressed using human cDNAs in Sf9 insect cells as recombinat GST-fusion proteins or His-tagged proteins by means of the baculovirus expression system. Kinases were purified by affinity chromatography using either GSH-agarose (Sigma) or Ni-NTA-agarose (Qiagen). The purity and identity of each kinase was determined by SDS-PAGE/silver staining and western blot analysis using specific antibodies.
Protein kinase Assay. A proprietary protein kinase assay (^33PanQinase® Activity Assay) was used for measuring the kinase activity of the 24 protein kinases. All protein kinase assays were performed in 96-well FlashPlates™ (Perkin Elmer/NEN, Boston, MA, USA) in a 50 µL reaction volumes. […] The IC50 values were measured by testing 10 concentrations of compounds by single sampling. […]
Data set [10] deals with Aurora-A (Homo sapiens, UniProt O14965). Briefly: 33PanQinase protein kinase activity assay. In kind it is biochemical. To be noted: recombinant kinase, 1 µM ATP.
Method: as §3, §4
Data set [11] concerns the target AKT1 (Homo sapiens, UniProt P31749). Briefly: 33PanQinase protein kinase activity assay. To be noted: recombinant kinase, 1 µM ATP. The data set is classed as biochemical.
Method: as §2
The target in data set [12] is INSR (Homo sapiens, UniProt P06213). Briefly: 33PanQinase protein kinase activity assay. The data set is classed as biochemical. The note with it: recombinant kinase, 1 µM ATP.
Method: as §3, §4
The target in data set [13] is VEGF-R3 (Homo sapiens, UniProt P35916). Put plainly: 33PanQinase protein kinase activity assay. In kind it is biochemical. The note with it: recombinant kinase, 1 µM ATP. The text has this:
(§1) Recombinant protein kinases.

Data set [14] deals with PLK1 (Homo sapiens, UniProt P53350). Put plainly: 33PanQinase protein kinase activity assay. The data set is classed as biochemical. The note with it: recombinant kinase, 1 µM ATP.
Source text: as §1

In data set [15] the target is VEGF-R2 (Homo sapiens, UniProt P35968). Briefly: 33PanQinase protein kinase activity assay. In kind it is biochemical. The note with it: recombinant kinase, 1 µM ATP.
Source text: as §1

Data set [16] concerns the target MET (Homo sapiens, UniProt P08581). Put plainly: 33PanQinase protein kinase activity assay. In kind it is biochemical. To be noted: recombinant kinase, 1 µM ATP.
Source text: as §1

In data set [17] the target is COT (Homo sapiens, UniProt P41279). Put plainly: 33PanQinase protein kinase activity assay. To be noted: recombinant kinase, 1 µM ATP. The data set is classed as biochemical.
Sequence of COT (P41279 whole entry): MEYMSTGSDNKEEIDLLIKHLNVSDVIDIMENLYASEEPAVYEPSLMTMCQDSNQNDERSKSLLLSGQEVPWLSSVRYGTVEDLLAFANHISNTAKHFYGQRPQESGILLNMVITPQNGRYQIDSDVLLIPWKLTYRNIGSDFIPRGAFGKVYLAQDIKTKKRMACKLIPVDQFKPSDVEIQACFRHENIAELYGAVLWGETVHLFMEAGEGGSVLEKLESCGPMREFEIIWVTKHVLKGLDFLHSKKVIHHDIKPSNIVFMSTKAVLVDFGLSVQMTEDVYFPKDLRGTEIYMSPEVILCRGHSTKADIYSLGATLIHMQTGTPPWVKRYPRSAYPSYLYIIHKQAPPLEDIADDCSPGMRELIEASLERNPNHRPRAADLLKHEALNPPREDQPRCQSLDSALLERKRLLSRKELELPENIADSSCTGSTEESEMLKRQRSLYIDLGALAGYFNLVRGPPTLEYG
Source text: as §1

Data set [18] concerns the target ERBB2 (Homo sapiens, UniProt P04626). Briefly: 33PanQinase protein kinase activity assay. In kind it is biochemical. To be noted: recombinant kinase, 1 µM ATP.
Source text: as §1

Data set [19] addresses SAK (Homo sapiens, UniProt O00444). Briefly: 33PanQinase protein kinase activity assay. In kind it is biochemical. To be noted: recombinant kinase, 1 µM ATP.
Source text: as §1

In data set [20] the target is FLT3 (Homo sapiens, UniProt P36888). Briefly: 33PanQinase protein kinase activity assay. The data set is classed as biochemical. The note with it: recombinant kinase, 1 µM ATP.
Sequence of FLT3 (P36888 27-993): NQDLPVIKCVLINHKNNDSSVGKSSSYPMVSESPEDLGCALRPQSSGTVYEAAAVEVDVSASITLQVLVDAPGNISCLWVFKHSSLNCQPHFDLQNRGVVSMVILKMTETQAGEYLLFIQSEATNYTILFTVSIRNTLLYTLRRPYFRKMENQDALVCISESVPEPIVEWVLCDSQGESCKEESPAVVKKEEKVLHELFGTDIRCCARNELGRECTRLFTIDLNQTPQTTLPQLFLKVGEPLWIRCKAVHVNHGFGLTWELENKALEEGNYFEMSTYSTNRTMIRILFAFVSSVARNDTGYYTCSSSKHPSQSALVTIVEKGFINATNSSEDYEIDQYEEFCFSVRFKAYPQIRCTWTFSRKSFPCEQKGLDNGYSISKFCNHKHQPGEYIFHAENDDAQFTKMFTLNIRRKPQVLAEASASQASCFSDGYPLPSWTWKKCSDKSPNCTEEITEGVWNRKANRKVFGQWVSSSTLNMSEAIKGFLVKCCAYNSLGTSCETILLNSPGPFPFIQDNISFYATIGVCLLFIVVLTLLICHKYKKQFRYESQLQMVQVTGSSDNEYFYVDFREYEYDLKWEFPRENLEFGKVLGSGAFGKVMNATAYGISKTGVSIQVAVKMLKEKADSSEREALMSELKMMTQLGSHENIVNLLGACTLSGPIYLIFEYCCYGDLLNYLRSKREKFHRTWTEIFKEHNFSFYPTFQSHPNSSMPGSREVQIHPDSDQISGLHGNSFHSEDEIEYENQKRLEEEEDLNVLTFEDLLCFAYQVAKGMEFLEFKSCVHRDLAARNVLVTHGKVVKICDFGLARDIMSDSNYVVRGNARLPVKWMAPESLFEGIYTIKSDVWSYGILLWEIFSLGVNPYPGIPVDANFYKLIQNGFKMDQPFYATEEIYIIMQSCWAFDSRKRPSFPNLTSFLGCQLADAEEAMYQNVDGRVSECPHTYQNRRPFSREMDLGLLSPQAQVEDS
Source text: as §1

For data set [21], the target named is CK2a1 (Homo sapiens, UniProt P68400). Briefly: 33PanQinase protein kinase activity assay. In kind it is biochemical. To be noted: recombinant kinase, 1 µM ATP.
Sequence of CK2a1 (P68400 whole entry): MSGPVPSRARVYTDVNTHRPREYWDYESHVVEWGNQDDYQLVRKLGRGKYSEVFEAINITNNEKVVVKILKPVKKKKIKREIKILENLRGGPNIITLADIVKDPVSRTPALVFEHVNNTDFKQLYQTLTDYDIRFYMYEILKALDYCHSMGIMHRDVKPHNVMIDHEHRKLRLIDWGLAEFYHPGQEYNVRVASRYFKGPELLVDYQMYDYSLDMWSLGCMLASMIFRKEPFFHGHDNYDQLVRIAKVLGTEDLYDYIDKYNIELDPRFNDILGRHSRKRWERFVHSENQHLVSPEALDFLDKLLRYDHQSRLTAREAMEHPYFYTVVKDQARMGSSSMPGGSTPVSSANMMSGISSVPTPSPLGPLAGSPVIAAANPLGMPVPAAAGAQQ
Source text: as §1

For data set [22], the target named is B-RAF-VE (Homo sapiens, UniProt P15056, V600E). Briefly: 33PanQinase protein kinase activity assay. In kind it is biochemical. To be noted: recombinant kinase, 1 µM ATP.
Sequence of B-RAF-VE (P15056 whole entry V600E): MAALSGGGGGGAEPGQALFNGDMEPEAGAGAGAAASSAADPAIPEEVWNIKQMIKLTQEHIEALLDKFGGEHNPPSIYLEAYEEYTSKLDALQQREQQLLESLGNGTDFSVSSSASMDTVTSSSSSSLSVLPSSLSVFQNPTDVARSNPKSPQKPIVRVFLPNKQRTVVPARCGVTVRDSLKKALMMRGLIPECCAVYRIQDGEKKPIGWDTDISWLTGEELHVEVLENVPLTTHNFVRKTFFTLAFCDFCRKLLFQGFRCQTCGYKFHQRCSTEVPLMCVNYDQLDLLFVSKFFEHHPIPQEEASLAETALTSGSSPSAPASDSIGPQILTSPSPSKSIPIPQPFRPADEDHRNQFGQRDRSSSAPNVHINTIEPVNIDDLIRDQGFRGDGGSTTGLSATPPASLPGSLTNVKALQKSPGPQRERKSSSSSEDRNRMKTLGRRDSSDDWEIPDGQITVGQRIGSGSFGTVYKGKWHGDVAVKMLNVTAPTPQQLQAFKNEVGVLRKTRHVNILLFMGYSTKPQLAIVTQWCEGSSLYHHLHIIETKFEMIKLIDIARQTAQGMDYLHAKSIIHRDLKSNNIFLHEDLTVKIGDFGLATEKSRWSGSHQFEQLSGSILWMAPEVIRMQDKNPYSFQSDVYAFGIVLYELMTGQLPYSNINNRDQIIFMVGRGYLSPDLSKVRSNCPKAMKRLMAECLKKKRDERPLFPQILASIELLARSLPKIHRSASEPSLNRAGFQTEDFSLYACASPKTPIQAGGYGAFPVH
Source text: as §1

Data set [23] addresses EGFR (Homo sapiens, UniProt P00533). Briefly: biochemical.
Data set [24] has as its target IGF1R (Homo sapiens, UniProt P08069). Briefly: 33PanQinase protein kinase activity assay. To be noted: recombinant kinase, 1 µM ATP. In kind it is biochemical.
Method: as §2
Data set [25] addresses Aurora-B (Homo sapiens, UniProt Q96GD4). Put plainly: 33PanQinase protein kinase activity assay. The data set is classed as biochemical. To be noted: recombinant kinase, 1 µM ATP.
Data set [26] deals with CDK4/CycD1 (Homo sapiens, UniProt P11802). Put plainly: 33PanQinase protein kinase activity assay. The note with it: recombinant kinase, 1 µM ATP. In kind it is biochemical.
The target in data set [27] is CDK2/CycA (Homo sapiens, UniProt P24941). Put plainly: 33PanQinase protein kinase activity assay. The data set is classed as biochemical. The note with it: recombinant kinase, 1 µM ATP.

Sequence of VEGF-R3 (P35916 25-1363): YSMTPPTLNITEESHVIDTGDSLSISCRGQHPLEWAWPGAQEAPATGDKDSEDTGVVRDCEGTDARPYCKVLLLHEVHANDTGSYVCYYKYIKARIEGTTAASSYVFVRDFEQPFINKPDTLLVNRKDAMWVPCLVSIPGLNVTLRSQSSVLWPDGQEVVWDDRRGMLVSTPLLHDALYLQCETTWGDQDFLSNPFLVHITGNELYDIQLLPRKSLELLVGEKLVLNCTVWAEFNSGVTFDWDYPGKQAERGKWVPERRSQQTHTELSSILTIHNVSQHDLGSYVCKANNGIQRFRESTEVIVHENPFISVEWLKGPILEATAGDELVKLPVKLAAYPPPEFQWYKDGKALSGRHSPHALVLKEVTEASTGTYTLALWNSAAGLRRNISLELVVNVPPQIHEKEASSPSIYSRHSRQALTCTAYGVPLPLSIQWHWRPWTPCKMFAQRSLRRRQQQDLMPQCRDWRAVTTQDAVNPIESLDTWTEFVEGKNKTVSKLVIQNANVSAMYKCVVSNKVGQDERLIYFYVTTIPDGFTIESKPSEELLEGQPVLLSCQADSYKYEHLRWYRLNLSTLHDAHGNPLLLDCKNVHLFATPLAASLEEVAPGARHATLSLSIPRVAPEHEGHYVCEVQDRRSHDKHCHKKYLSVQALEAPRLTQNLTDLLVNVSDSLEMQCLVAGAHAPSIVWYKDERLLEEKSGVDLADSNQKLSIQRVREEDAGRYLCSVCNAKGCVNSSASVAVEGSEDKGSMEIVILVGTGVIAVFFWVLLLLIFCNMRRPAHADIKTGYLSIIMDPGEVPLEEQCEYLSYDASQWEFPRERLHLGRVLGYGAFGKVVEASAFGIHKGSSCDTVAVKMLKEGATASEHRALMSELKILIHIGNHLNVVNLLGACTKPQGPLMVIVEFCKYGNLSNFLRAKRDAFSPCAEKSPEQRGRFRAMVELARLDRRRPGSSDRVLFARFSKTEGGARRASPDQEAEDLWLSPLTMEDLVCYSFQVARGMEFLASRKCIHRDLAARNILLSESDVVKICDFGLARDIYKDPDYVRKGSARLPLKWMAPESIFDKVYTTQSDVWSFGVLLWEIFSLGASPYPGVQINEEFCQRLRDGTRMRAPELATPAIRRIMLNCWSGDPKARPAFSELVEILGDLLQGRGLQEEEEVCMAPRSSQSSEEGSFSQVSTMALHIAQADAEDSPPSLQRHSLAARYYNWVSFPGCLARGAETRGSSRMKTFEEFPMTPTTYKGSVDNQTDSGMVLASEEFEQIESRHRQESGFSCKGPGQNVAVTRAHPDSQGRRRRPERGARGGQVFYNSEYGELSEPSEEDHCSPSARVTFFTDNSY
Sequence of PDGFRβ (P09619 33-1106): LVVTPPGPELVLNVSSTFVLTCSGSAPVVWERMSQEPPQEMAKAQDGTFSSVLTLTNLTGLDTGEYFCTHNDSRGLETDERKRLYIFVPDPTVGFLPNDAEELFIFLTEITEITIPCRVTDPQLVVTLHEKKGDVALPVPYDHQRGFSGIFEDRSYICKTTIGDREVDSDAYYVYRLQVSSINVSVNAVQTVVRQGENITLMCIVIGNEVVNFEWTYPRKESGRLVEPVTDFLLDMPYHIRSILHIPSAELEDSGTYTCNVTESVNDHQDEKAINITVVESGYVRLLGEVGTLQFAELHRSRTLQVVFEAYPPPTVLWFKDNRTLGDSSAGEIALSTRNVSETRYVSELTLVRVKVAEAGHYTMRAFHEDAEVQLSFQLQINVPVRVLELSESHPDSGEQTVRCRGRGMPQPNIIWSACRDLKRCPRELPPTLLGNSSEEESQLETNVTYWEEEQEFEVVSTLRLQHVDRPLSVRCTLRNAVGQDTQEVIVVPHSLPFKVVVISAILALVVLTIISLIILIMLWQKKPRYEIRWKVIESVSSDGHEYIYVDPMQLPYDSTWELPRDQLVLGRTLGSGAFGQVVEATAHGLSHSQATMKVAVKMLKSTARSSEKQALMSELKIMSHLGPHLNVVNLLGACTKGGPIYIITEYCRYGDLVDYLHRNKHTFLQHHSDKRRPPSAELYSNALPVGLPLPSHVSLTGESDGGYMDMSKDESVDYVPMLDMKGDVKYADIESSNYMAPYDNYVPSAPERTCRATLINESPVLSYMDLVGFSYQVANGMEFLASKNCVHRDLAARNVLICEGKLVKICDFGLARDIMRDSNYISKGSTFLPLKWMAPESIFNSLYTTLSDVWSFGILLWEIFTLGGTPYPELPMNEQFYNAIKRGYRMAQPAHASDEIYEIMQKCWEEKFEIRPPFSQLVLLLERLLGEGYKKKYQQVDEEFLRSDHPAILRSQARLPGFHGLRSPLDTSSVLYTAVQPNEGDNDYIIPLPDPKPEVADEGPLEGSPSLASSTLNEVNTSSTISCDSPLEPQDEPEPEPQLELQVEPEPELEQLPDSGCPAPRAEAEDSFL

Regarding `COc1ccc(-c2nc(-c3c[nH]c4ccccc34)c[nH]c2=O)cc1OC` [Compound 6, 3-(3,4-dimethoxyphenyl)-5-(1H-indol-3-yl)-1H-pyrazin-2-one], in [1], the IC50 is 1.5 µM.

For the compound `COc1cc(-c2nc(-c3c[nH]c4ccc(O)cc34)c[nH]c2=O)cc(OC)c1OC` [Compound 8, 5-(5-hydroxy-1H-indole-3-yl)-3-(3,4,5-trimethoxyphenyl)pyrazin-2(1H)-one], the figures for the IC50 in data set [2] and in data set [1] were 30 µM and 0.3 µM, respectively. Also, in data set [3], the “cytotoxic effect on the other cells tested” value was “significantly less affected”.

On to `COc1ccc(-c2nc(-c3c[nH]c4ccccc34)c[nH]c2=O)cc1` [Compound 7, 3-(4-methoxyphenyl)-5-(1H-indol-3-yl)-1H-pyrazin-2-one], for which the IC50 in data set [1] was 19 µM.

As to `O=C1NC[C@@H](c2c[nH]c3cc(Br)ccc23)N[C@H]1c1c[nH]c2cc(Br)ccc12` [cis-3,4-dihydro hamacanthin B], the half-inhibitory concentration (IC50) in data set [4] is 0.016 µM.

Regarding `COc1cc(-c2nc(-c3c[nH]c4ccccc34)c[nH]c2=O)cc(OC)c1OC` [Compound 5, 5-(1H-indole-3-yl)-3-(3,4,5-trimethoxyphenyl)pyrazin-2(1H)-one], the IC50 in data set [5], in [6], in [7], in data set [8], in [9] and in data set [10] was more than 100 µM throughout. The IC50 in data set [11] was more than 100 µM; in [1], 0.5 µM; in [12] it was more than 100 µM; in data set [13], 5 µM; in [14] it was more than 100 µM; in data set [15] it was 4 µM. The IC50 in [16] was more than 100 µM; in data set [17] it was more than 100 µM; in [18], more than 100 µM; in data set [19] it was more than 100 µM; in data set [20] it was 36 µM; in data set [21] it was more than 100 µM. The IC50 in data set [22], in [23], in data set [24] and in data set [25] was more than 100 µM in each case. Further, the “IC50 (µM) VEGF-R3” value in data set [13] is recorded as “low µM range”. The “cytotoxic effect on the other cells tested” value in [3] was “significantly less affected”.

On to “3-(indole-3-yl)-4-(3,4,5-trimethoxyphenyl)-1H-pyrrole-2,5-dione [Compound 1, reference compound]”, for which the IC50 was 56 µM in [26]; 66 µM in [27]; 0.037 µM in data set [13]; more than 100 µM in [14]; 60 µM in data set [16]; 32 µM in data set [17]. For the same compound, the IC50 was 51 µM in data set [18]; 10 µM in data set [19]; 61 µM in data set [20]; more than 100 µM in [21]; more than 100 µM in data set [22]; 66 µM in [25].
